Each compound was assayed on GLX mice (assay: brief access licking after glossopharyngeal nerve transection (GLX)). Details: C57Bl/6 mice, GLX versus SHAM.
Format: in vivo
Procedure: C57Bl/6 mice (Harlan) were trained to lick in the brief access licking. Following training mice were balanced for body weight and average number of licks per trial to water during training and assigned to a surgery group. Mice were allowed to recover for at least two weeks following surgery. They were given two days of licking to water (shutter training), food was taken away overnight and they were tested for their licking responses to soybean oil in […] over 2 days of testing. The next week they were tested in the same manner to sucrose. Following the last day of testing, mice were euthanized and their tongues were taken for histological analysis. CV papilla were cross sectioned and stained with hematoxylin/eosin. An observer blind to the surgical condition counted taste buds.

**Q.** For `OC[C@H]1O[C@@](CO)(O[C@H]2O[C@H](CO)[C@@H](O)[C@H](O)[C@H]2O)[C@@H](O)[C@@H]1O` [sucrose], which “concentration-dependent licking in GLX mice relative to SHAM operated controls” value is on record?
**A.** identical increases in licking

Each compound was assayed on GPR113 KO mice (assay: brief-access licking paradigms in WT and GPR113 KO mice). Details: GPR113 KO versus WT.
Format: in vivo
Procedure: FIG. 10 contains mean (±SE) number of licks taken to a range of soybean oil concentrations and the vehicle emplex measured during 5-second trials in wild-type (WT; closed circles) and GPR113 knockout (KO; open circles) mice.
Several groups of mice underwent behavioral testing. […] We also tested groups of mice in brief-access licking paradigms. […] Mineral oil was tested as a control for viscosity.

**Q.** With `CCCCC/C=C\C/C=C\CCCCCCCC(=O)O` [linoleic acid] as the compound, how does the “licking response of GPR113 KO mice compared with WT” value (“licking response … compared with WT” for short) read?
**A.** absent or significantly diminished

**Q.** Which “licking response … compared with WT” value does the source give for `C=C[C@H]1C[N@@]2CC[C@H]1C[C@H]2[C@H](O)c1ccnc2ccc(OC)cc12` [quinine] here?
**A.** responded similarly

**Q.** For `O=C(O)CC(O)(CC(=O)O)C(=O)O` [citric acid], which “licking response … compared with WT” value is on record?
**A.** responded similarly

**Q.** `[Cl-].[Na+]` [NaCl] was tested. Which “licking response … compared with WT” value did it give?
**A.** responded similarly

**Q.** With `CCCCCCCC/C=C\CCCCCCCC(=O)O` [oleic acid] as the compound, how does the “licking response … compared with WT” value read?
**A.** absent or significantly diminished

**Q.** With `OC[C@H]1O[C@@](CO)(O[C@H]2O[C@H](CO)[C@@H](O)[C@H](O)[C@H]2O)[C@@H](O)[C@@H]1O` [sucrose] as the compound, how does the “licking response … compared with WT” value read?
**A.** responded similarly

**Q.** Which “licking response … compared with WT” value does the source give for `[Cl-].[K+]` [KCl] here?
**A.** responded similarly

Same assay, conditions: WT mice

**Q.** `CCCCC/C=C\C/C=C\CCCCCCCC(=O)O` [linoleic acid] was tested. Which “licking in response to increasing concentrations” value did it give?
**A.** increased licking

**Q.** For `CCCCCCCC/C=C\CCCCCCCC(=O)O` [oleic acid], which “licking in response to increasing concentrations” value is on record?
**A.** increased licking
